One substance from patent US10813982B2, “Composition comprising an oxidoreductase enzyme and its antibacterial use” (SYSTAGENIX WOUND MANAGEMENT, LIMITED, priority 2015, dated 2020) can be followed below.

In one test the test system is S. aureus biofilms. Briefly: Biofilm model: 24 hour exposure against 24 hour old single species biofilm, viable count. In kind it is cell-based, Staphylococcus aureus. The following applies: 30 μl per disc/biofilm, 37° C., 80 rpm shaking, FIG. 2. Here is the method:
(§1) Stationary phase cultures of S. aureus or P. aeruginosa grown in TSB were adjusted to 0.5 McFarland (c. 1.5×10^8 CFU/mL) and diluted a further 1:4 ratio (1 mL inoculum with 3 mL 0.1% Bactopeptone). A viable count was taken of each inoculum preparation. Sterile discs (6 mm diameter×1.0 mm) housed in 24 well culture plates were inoculated with 80 μL of culture. 0.2 ml of a test media was then added, the assay plates were parafilmed and incubated for 24 h at 37 degrees Celsius with 80 rpm shaking to allow biofilm formation. Unused wells were filled with PBS to increase humidity and prevent evaporation. After 24 hours incubation, cellulose discs/biofilms were rinsed with PBS to remove any […] vegetative cells and transferred to 150 μl of fresh media. For the honey (as the source of glucose) and Prontosan®, 30 μl was added to each test disc. […] Assuming the lowest concentration (100,[…]), 3.5 mg (350 U) was added to 3.5 ml of DPBS to give a 100 U/ml working stock which was filter sterilised. […] 30 μl of each was added to a disc/biofilm. The assay plates were parafilmed and incubated for 24 hours at 37° C. with 80 rpm shaking to allow biofilm disruption. Unused wells were filled with PBS to increase humidity and prevent evaporation. […]

A further test relates to P. aeruginosa biofilms. The test is described as above. Format: cell-based, Pseudomonas aeruginosa. The following applies: 30 μl per disc/biofilm, 37° C., 80 rpm shaking, FIG. 1. Here is the method:
as §1, with “sterilised. For the Pseudomonas experiment, the working stock was diluted in PBS to give a 10 U/ml solution-30 μl was added to a disc/biofilm.” for “sterilised.”

For the substance glucose oxidase [glucose oxidase alone], the “inhibition of 24 hour old single species biofilms of S. aureus” value in the test with S. aureus biofilms was “no inhibition”. In addition, in the test on P. aeruginosa biofilms, the “inhibition of 24 hour old single species biofilms of P. aeruginosa” value is reported as “no inhibition”.
